Laboratory results: patent US9809540B2, “Hydrobromide salt of N-(4-chloro-2-hydroxy-3-((3S)-3-piperidinylsulfonyl)phenyl-N'-(3-fluoro-2-methylphenyl)urea” (GlaxoSmithKline Intellectual Property (No.2) Limited, priority 2013, dated 2017)
Values after ≈ are worked out from the molar mass of the structure shown. Counter-ions that a name gives are not always drawn. One block for each compound: values may come before it.

Columns and labels:
[1] = Dissolution profiles (capsule) in pH1.6 simulated gastric fluid and pH 4 citrate buffer; assay type: physicochemical
Procedure: Dissolution profiles of the HBr salt (50 mg as free form) in a capsule compared with the free base in pH1.6 simulated gastric fluid and in pH 4 citrate buffer. The HBr salt is better.

[2] = Solubility in simulated gastric/intestinal fluids and pH media; assay type: physicochemical; settings: for solubility at 0.5 h / solubility at 4 h / solubility at 24 h / solubility at 0.5 hr / solubility at 4 hr / solubility at 24 hr: thermodynamic from solid

Dissolution profile ([1]; 50 mg as free form in a capsule, pH1.6 simulated gastric fluid and pH 4 citrate buffer, FIGS. 1 and 2): better | Rate of dissolution at an elevated gastric pH ([1]; FIG. 2, elevated gastric pH): greatest rate of dissolution | Dissolution profile at higher pH as compared to the free base ([1]; higher pH): improved | Solubility ([2]; Phares FaSSIF pH 6.5, 4 hr): 272 µg/mL | solubility at 0.5 h ([2]; SGF (simulated gastric fluid), pH 1.6, simulated gastric fluid, Batch 1, SGF pH 1.6, 0.5 hr): 770 µg/mL | solubility at 4 h ([2]; SGF (simulated gastric fluid), pH 1.6, simulated gastric fluid, Batch 1, SGF pH 1.6, 4 hr): 787 µg/mL | solubility at 24 h ([2]; SGF (simulated gastric fluid), pH 1.6, simulated gastric fluid, Batch 1, SGF pH 1.6, 24 hr): 795 µg/mL | solubility at 0.5 h ([2]; SGF (simulated gastric fluid), pH 1.6, simulated gastric fluid, Batch 2, SGF pH 1.6, 0.5 hr): 414 µg/mL | solubility at 4 h ([2]; SGF (simulated gastric fluid), pH 1.6, simulated gastric fluid, Batch 2, SGF pH 1.6, 4 hr): 647 µg/mL | solubility at 24 h ([2]; SGF (simulated gastric fluid), pH 1.6, simulated gastric fluid, Batch 2, SGF pH 1.6, 24 hr): 800 µg/mL | solubility at 0.5 h ([2]; SGF (simulated gastric fluid), pH 1.6, simulated gastric fluid, Batch 3, SGF pH 1.6, 0.5 hr): 757 µg/mL | Solubility compared with the free base ([2]; at higher pH's and in simulated intestinal fluids): higher than the free base | solubility at 0.5 hr ([2]; fasted-state simulated intestinal fluid (Phares FaSSIF), pH 6.5, fassif, Batch 1, Phares FaSSif pH 6.5, 0.5 hr): 420 µg/mL | solubility at 4 hr ([2]; fasted-state simulated intestinal fluid (Phares FaSSIF), pH 6.5, fassif, Batch 1, Phares FaSSif pH 6.5, 4 hr): 384 µg/mL | solubility at 24 hr ([2]; fasted-state simulated intestinal fluid (Phares FaSSIF), pH 6.5, fassif, Batch 1, Phares FaSSif pH 6.5, 24 hr): 64 µg/mL | solubility at 0.5 hr ([2]; fasted-state simulated intestinal fluid (Phares FaSSIF), pH 6.5, fassif, Batch 2, Phares FaSSif pH 6.5, 0.5 hr): 270 µg/mL | solubility at 4 hr ([2]; fasted-state simulated intestinal fluid (Phares FaSSIF), pH 6.5, fassif, Batch 2, Phares FaSSif pH 6.5, 4 hr): 379 µg/mL | solubility at 24 hr ([2]; fasted-state simulated intestinal fluid (Phares FaSSIF), pH 6.5, fassif, Batch 2, Phares FaSSif pH 6.5, 24 hr): 79 µg/mL | solubility at 0.5 hr ([2]; fasted-state simulated intestinal fluid (Phares FaSSIF), pH 6.5, fassif, Batch 3, Phares FaSSif pH 6.5, 0.5 hr): 459 µg/mL | solubility at 4 hr ([2]; fasted-state simulated intestinal fluid (Phares FaSSIF), pH 6.5, fassif, Batch 3, Phares FaSSif pH 6.5, 4 hr): 227 µg/mL | solubility at 24 hr ([2]; fasted-state simulated intestinal fluid (Phares FaSSIF), pH 6.5, fassif, Batch 3, Phares FaSSif pH 6.5, 24 hr): 56 µg/mL | solubility at 0.5 hr ([2]; fed-state simulated intestinal fluid (Phares FeSSIF), fessif, Batch 1, Phares FeSSIF pH .5, 0.5 hr): 838 µg/mL | solubility at 4 hr ([2]; fed-state simulated intestinal fluid (Phares FeSSIF), fessif, Batch 1, Phares FeSSIF pH .5, 4 hr): 833 µg/mL | solubility at 24 hr ([2]; fed-state simulated intestinal fluid (Phares FeSSIF), fessif, Batch 1, Phares FeSSIF pH .5, 24 hr): 788 µg/mL | solubility at 0.5 hr ([2]; fed-state simulated intestinal fluid (Phares FeSSIF), fessif, Batch 2, Phares FeSSIF pH .5, 0.5 hr): 478 µg/mL | solubility at 4 hr ([2]; fed-state simulated intestinal fluid (Phares FeSSIF), fessif, Batch 2, Phares FeSSIF pH .5, 4 hr): 846 µg/mL | solubility at 24 hr ([2]; fed-state simulated intestinal fluid (Phares FeSSIF), fessif, Batch 2, Phares FeSSIF pH .5, 24 hr): 834 µg/mL | solubility at 0.5 hr ([2]; fed-state simulated intestinal fluid (Phares FeSSIF), fessif, Batch 3, Phares FeSSIF pH .5, 0.5 hr): 724 µg/mL | solubility at 4 hr ([2]; fed-state simulated intestinal fluid (Phares FeSSIF), pH 6.5, fessif, Batch 3, Phares FeSSIF pH .5, 4 hr): 841 µg/mL | solubility at 24 hr ([2]; fed-state simulated intestinal fluid (Phares FeSSIF), pH 6.5, fessif, Batch 3, Phares FeSSIF pH .5, 24 hr): 340 µg/mL | Solubility at higher pH as compared to the free base ([2]; higher pH): improved | solubility at 0.5 h ([2]; pH 2, aqueous buffer, Batch 3, pH 2.0, 0.5 hr): 605 µg/mL | solubility at 4 h ([2]; pH 2, aqueous buffer, Batch 3, pH 2.0, 4 hr): 635 µg/mL | solubility at 24 h ([2]; pH 2, aqueous buffer, Batch 3, pH 2.0, 24 hr): 609 µg/mL | solubility at 24 h ([2]; pH 2, aqueous buffer, pH 2.0, 24 hr): 609 µg/mL | solubility at 0.5 h ([2]; pH 4, aqueous buffer, Batch 3, pH 4.0, 0.5 hr): 685 µg/mL | solubility at 4 h ([2]; pH 4, aqueous buffer, Batch 3, pH 4.0, 4 hr): 670 µg/mL | solubility at 24 h ([2]; pH 4, aqueous buffer, Batch 3, pH 4.0, 24 hr): 609 µg/mL | solubility at 4 h ([2]; pH 4, aqueous buffer, pH 4.0, 4 hr): 670 µg/mL | solubility at 0.5 h ([2]; pH 6, aqueous buffer, Batch 3, pH 6.0, 0.5 hr): 194 µg/mL | solubility at 4 h ([2]; pH 6, aqueous buffer, Batch 3, pH 6.0, 4 hr): 13 µg/mL | solubility at 24 h ([2]; pH 6, aqueous buffer, Batch 3, pH 6.0, 24 hr): 5 µg/mL | solubility at 0.5 h ([2]; pH 8, aqueous buffer, Batch 3, pH 8.0, 0.5 hr): 52 µg/mL | solubility at 4 h ([2]; pH 8, aqueous buffer, Batch 3, pH 8.0, 4 hr): 13 µg/mL | solubility at 24 h ([2]; pH 8, aqueous buffer, Batch 3, pH 8.0, 24 hr): 8 µg/mL | solubility at 0.5 h ([2]; pH 8, aqueous buffer, pH 8.0, 0.5 hr): 52 µg/mL | solubility at 4 h ([2]; pH 8, aqueous buffer, pH 8.0, 4 hr): 13 µg/mL | solubility at 24 h ([2]; pH 8, aqueous buffer, pH 8.0, 24 hr): 8 µg/mL | solubility at 4 hr ([2]; simulated gastric fluid (SGF), pH 1.6, simulated gastric fluid, Batch 3, SGF pH 1.6, 4 hr): 795 µg/mL | solubility at 24 hr ([2]; simulated gastric fluid (SGF), pH 1.6, simulated gastric fluid, Batch 3, SGF pH 1.6, 24 hr): 779 µg/mL
SMILES: Cc1c(F)cccc1NC(=O)Nc1ccc(Cl)c(S(=O)(=O)[C@H]2CCCNC2)c1O [HBr Salt, hydrobromide salt of the enantiomer N-{4-chloro-2-hydroxy-3-[(3S)-3-piperidinylsulfonyl]phenyl}-N′-(3-fluoro-2-methylphenyl)urea]
Dissolution rate at low gastric pH ([1]; FIG. 1, low gastric pH): enhanced dissolution rate without gelling | Solubility in simulated intestinal fluids over time ([2]; simulated intestinal fluids, compared with free base): does reduce with time but is still much higher than the equivalent free base solubility

Solubility ([2]; Phares FaSSIF pH 6.5, 0.5 hr): 9 µg/mL (≈ 20.4 µM) | Solubility ([2]; Phares FaSSIF pH 6.5, 4 hr): 18 µg/mL (≈ 40.7 µM) | Solubility ([2]; Phares FaSSIF pH 6.5, 24 hr): 10 µg/mL (≈ 22.6 µM) | Solubility ([2]; Phares FeSSIF pH 6.5, 0.5 hr): 19 µg/mL (≈ 43 µM) | Solubility ([2]; Phares FeSSIF pH 6.5, 4 hr): 24 µg/mL (≈ 54.3 µM) | Solubility ([2]; Phares FeSSIF pH 6.5, 24 hr): 25 µg/mL (≈ 56.6 µM) | solubility at 0.5 h ([2]; SGF (simulated gastric fluid), pH 1.6, simulated gastric fluid, SGF pH1.6, 0.5 hr): 715 µg/mL (≈ 1620 µM) | solubility at 4 h ([2]; SGF (simulated gastric fluid), pH 1.6, simulated gastric fluid, SGF pH1.6, 4 hr): 808 µg/mL (≈ 1830 µM) | solubility at 24 h ([2]; SGF (simulated gastric fluid), pH 1.6, simulated gastric fluid, SGF pH1.6, 24 hr): 842 µg/mL (≈ 1910 µM) | Solubility ([2]; pH 2.0, 24 hr): 697 µg/mL (≈ 1580 µM) | solubility at 0.5 h ([2]; pH 2, aqueous buffer, pH 2.0, 0.5 hr): 601 µg/mL (≈ 1360 µM) | solubility at 4 h ([2]; pH 2, aqueous buffer, pH 2.0, 4 hr): 662 µg/mL (≈ 1500 µM) | Solubility ([2]; pH 4.0, 0.5 hr): 21 µg/mL (≈ 47.5 µM) | Solubility ([2]; pH 4.0, 4 hr): 23 µg/mL (≈ 52 µM) | Solubility ([2]; pH 4.0, 24 hr): 24 µg/mL (≈ 54.3 µM) | solubility at 24 h ([2]; pH 6, aqueous buffer, pH 6.0, 24 hr): 4 µg/mL (≈ 9.05 µM) | Solubility ([2]; pH 8.0, 0.5 hr): 5 µg/mL (≈ 11.3 µM) | Solubility ([2]; pH 8.0, 4 hr): 5 µg/mL (≈ 11.3 µM) | Solubility ([2]; pH 8.0, 24 hr): 5 µg/mL (≈ 11.3 µM)
SMILES: Cc1c(F)cccc1NC(=O)Nc1ccc(Cl)c(S(=O)(=O)[C@H]2CCCNC2)c1O [Micronised free base, N-{4-chloro-2-hydroxy-3-[(3S)-3-piperidinylsulfonyl]phenyl}-N′-(3-fluoro-2-methylphenyl) urea, reference compound]
